Data set [1] concerns antimalarial and antiamoebic activity. To be noted: Hahn et al.; cited from earlier work.
Data set [2] concerns HIV-1 (strain LAV). The data set is described as follows: Anti-HIV-1 activity in human PBM cells infected with HIV-1 (strain LAV), reverse transcriptase readout. The class given is cell-based. The settings on record: Human immunodeficiency virus 1, PBMC, read-out: Median effective concentration (EC50) against HIV-1. The protocol:
The median effective concentrations (EC50) of selected quinolines against HIV-1 were determined in human blood mononuclear (PBM) cells infected with HIV-1 (strain LAV) as described below. […] It appears that the presence of a heteraromatic substituent at position 2 of the quinoline enhances the anti-HIV-1 activity of the 4-[(alkyl and dialkyl)amino]quinoline derivative. The anti-HIV-1 activity appears to be diminished in compounds with large substituents attached to the 4-amino group.
The following procedure was used to determine the EC50 values for selected compounds.
A. Three-day-old phytohemagglutinin-stimulated PBM cells (10^6 cells/ml) from hepatitis B and HIV-1 seronegative healthy donors were infected with HIV-1 (strain LAV) at a concentration of about 100 times the 50% tissue culture infectious dose (TICD 50) per ml and cultured in the presence and absence of various concentrations of quinolines.
B. Approximately 45 minutes after infection, medium, with the compound to be tested (2 times the final concentration in medium) or without compound, was added to the flasks (5 ml; final volume 10 ml). AZT was used as a positive control.
C. The cells were exposed to HIV (about 2×10^5 dpm/ml, as determined by reverse transcriptase assay) and then placed in a CO2 incubator. HIV-1 (strain LAV) was obtained from the Center for Disease Control, Atlanta, Ga. The methods used for culturing the PBM cells, harvesting the virus and determining the reverse transcriptase activity were those described by McDougal et al. (J. Immun. Meth. 76, 171-183, 1985) and Spira et al. (J. Clin. Meth. 25, 97-99, 1987), except that fungizone was not included in the medium (see Schinazi, et al., Antimicrob. Agents Chemother. 32, 1784-1787 (1988)). The reverse transcriptase activity in the virus-infected control was about 2×10^5 dpm per ml. Blank and uninfected cell control values were about 300 and 1,000 dpm, respectively.
D. On day 6, the cells and media were transferred to a 15 ml tube and centrifuged at about 900 g for 10 minutes. Five ml of supernatant were removed and the virus concentrated by centrifugation at 40,000 rpm for 30 minutes (Beckman 70.1 Ti rotor). The solubilized virus pellet was processed for determination of the levels of reverse transcriptase. Results are expressed in dpm/ml of sampled supernatant.
The median effective (EC50) concentrations for derivatized quinolines, were determined by the median effect method (Antimicrob. Agents Chemother. 30: 491-498, 1986). Briefly, in the median effect method, the percent inhibition of virus, as determined from measurements of reverse transcriptase, is plotted versus the micromolar concentration of compound. The EC50 is the concentration of compound at which there is a 50% inhibition of viral replication.

Data set [3] is described as follows: Toxicity (growth) in uninfected human peripheral blood mononuclear (PBM) cells. The class given is cell-based. To be noted: 6 days, trypan blue exclusion, read-out: IC50, growth of uninfected PBM cells. The protocol:
The toxicity of 6a,6d,8a, and 8c were determined in […] PBM cells (3.8×10^5 cells/ml) cultured in the presence and absence of compounds under conditions similar to those used for the antiviral assay described above but without virus. The cells were counted after 6 days using a hemacytometer and the trypan blue exclusion method, as described by Schinazi et al., Antimicrobial Agents and Chemotherapy, 22(3), 499 (1982).
The effect of the compounds on the growth of uninfected human PBM cells in culture is used as an indicator of the toxicity of the test compound to the normal viability of cells. The IC50 is the concentration of compound which inhibits 50% of normal, uninfected, cell growth.

The conditions of data set [4]: infants and children, high dosages; cited from earlier work.
The test system of data set [5] is DNA. The settings on record: Hahn et al. 1966; cited from earlier work.
Data set [6] deals with Plasmid pBR322 superhelical DNA. To be noted: reference value; cited from earlier work.

Here are results for 14 compounds from patent US5304554A, “4-[(alkyl or dialkyl)amino]quinolines and their method of preparation” (Emory University, priority 1992, dated 1994).

“Also recorded” adds a separate entry of the source.

As to `CCN(CC)CCCC(C)Nc1c2ccc(Cl)cc2nc2ccc(OC)cc12` (centres unmarked) [quinacrine, 6-chloro-9-[[4-(diethylamino)-1-methylbutyl]amino]-2-methoxyacridine], in data set [1], the “Antimalarial and antiamoebic activity (in words)” value is “have antimalarial and antiamoebic activity”.

Regarding `CCN(CCN(C)C)c1cc(-c2cccnc2)nc2ccccc12` [Quinoline 6b], the EC50 in data set [2] was 24.2 µM.

For `CN1CCN(c2cc(-c3cccnc3)nc3ccccc23)CC1` [Quinoline 6d], the EC50 in data set [2] was determined as 1 µM. In data set [3], the CC50 at 144 h was > 100 µM.

Turning to `CCN(CCN(C)C)c1cc(-c2ccccn2)nc2ccccc12` [Quinoline 5b], the EC50 in data set [2] came out at 13.2 µM.

Consider `CN(C)CCNc1cc(-c2cccnc2)nc2ccccc12` [Quinoline 6a], for which, in data set [2], the EC50 stood at 1.5 µM. The CC50 at 144 h in data set [3] was > 100 µM.

Take `CN1CCN(c2cc(-c3ccccn3)nc3ccccc23)CC1` [Quinoline 5d]: the EC50 in data set [2] was 5.5 µM.

Take `CN(C)CCNc1cc(-c2ccccn2)nc2ccccc12` [Quinoline 5a]: the EC50 in data set [2] stood at 1.1 µM.

As to `CCN(CCN(C)C)c1cc(-c2cccs2)nc2ccccc12` [Quinoline 9c], the EC50 in data set [2] was determined as 32.4 µM.

Regarding `CCN(CC)CCCC(C)Nc1ccnc2cc(Cl)ccc12` (centres unmarked) [chloroquine, 7-chloro-4-(4-diethylamino-1-methylbutylamino)quinoline], in data set [4], the “Adverse effects (in words)” value is “Sudden deaths have been reported; also recorded: infants and children are extremely susceptible to adverse effects”. The “Antimalarial and antiamoebic activity (in words)” value in data set [1] is “have antimalarial and antiamoebic activity”. Further, the “Inhibition of nucleic acid biosynthesis (in words)” value in data set [5] is “inhibits nucleic acid biosynthesis by forming a molecular complex with DNA”.

As for `CN1CCN(c2cc(-c3ccncc3)nc3ccccc23)CC1` [Quinoline 7c], the EC50 in data set [2] worked out at 68.2 µM.

For `CN(C)CCNc1cc(-c2ccco2)nc2ccccc12` [Quinoline 8a], in data set [2], the EC50 amounted to 0.9 µM. Also, the CC50 at 144 h in data set [3] was > 100 µM.

Turning to `CC[n+]1c(-c2ccccc2)c2cc(N)ccc2c2ccc(N)cc21` [ethidium], in data set [6], the Unwinding angle is on record as 26.

Consider `CN1CCN(c2cc(-c3ccco3)nc3ccccc23)CC1` [Quinoline 8c], for which the EC50 in data set [2] stood at 1 µM. In data set [3], the CC50 at 144 h is > 100 µM.

Take `CN(C)CCNc1cc(-c2cccs2)nc2ccccc12` [Quinoline 9a]: in data set [2], the EC50 turned out to be 1 µM.
